Test results taken from patent US10441630B2, “Topical formulations and uses thereof” (OCULAR TECHNOLOGIES SARL, priority 2012, dated 2019).

Experiments:
[1] = Mixed nanomicellar size and polydispersity index (Zetasizer) of compound 1001 MNF; format: physicochemical; conditions: HCO-60 4 wt %, Octoxynol-40 0.01 wt %
Protocol: The formulation size and polydispersity index were determined with Zetasizer, Malvern Instruments, NJ. In brief, approximately 1 ml of each formulation was transferred to a cuvette and placed in the instrument. A laser beam of light was used to determine the mixed nanomicellar size.
(§1) Mixed nanomicellar formulation encapsulating compound 1001 was prepared by solvent evaporation method in two steps: 1) Preparation of basic formulation and 2) rehydration. In step one, compound 1001, HCO-60 and octoxynol-40 were dissolved separately in 0.3 mL of ethyl acetate. These three solutions were mixed together in 15-mL centrifuge tube. The resultant mixture was vortexed to obtain a homogenous solution. Ethyl acetate solvent was removed with speed vacuum to obtain a solid thin film. The residue was kept overnight under high vacuum at room temperature to remove residual organic solvent. In step two, the resultant thin film was hydrated with 1 mL of double distilled deionized water by vortexing the solution. The rehydrated formulation was suspended in 2× phosphate buffer solution, (pH 6.5). It was filtered through 0.2 μm nylon filter membrane to remove the unentrapped drug aggregates and other foreign particulates. The entrapment of compound 1001 was determined by RP-HPLC following disruption of the micelles and solubilization of 1001 in the diluent (2-propanol) as described below
(§2) Weight percent of drug loaded into MNF was determined following the method for entrapment efficiency. Size and polydispersity index of the formulations was determined with Malvern zetasizer as described above. The formulations appear clear and have small size and narrow size distribution.

[2] = Weight percent of drug loaded into MNF (entrapment, RP-HPLC); format: physicochemical; conditions: HCO-60 4 wt %, Octoxynol-40 0.01 wt %
Protocol: To determine the entrapment efficiency of the formulation, all the prepared formulations were subjected to entrapment efficiency test. Briefly, formulations were vortex mixed for homogeneity and 1 mL was transferred to a fresh (1.5 mL) eppendorf tube. Each formulation was lyophilized to obtain a solid at the bottom of eppendorf tube. The obtained solid was suspended in 1 mL of organic solvent (diethyl ether) to generate reverse micelles and release the drug into the external organic solvent. The organic solvent was evaporated overnight in speed vacuum. The resultant reversed micelles were resuspended in 1 mL of 2-propanol (dilution factor was taken into account) and further diluted to determine the concentration of compound 1001 entrapped in each micellar preparation with HPLC. The entrapment efficiency of the formulation was calculated with the following formula (wherein MNF=Mixed Nanomicellar Formulation): […]
In vitro analysis of compound 1001 was performed by a reversed phase high performance liquid chromatography (RP-HPLC) method with a Shimadzu HPLC pump (Shimadzu, Shimadzu Scientific instruments, Columbia, Md.), Alcott autosampler (model 718 AL), Shimadzu UV/Visible detector (Shimadzu, SPD-20A/20AV, USA), ODS column (5 μm, 150×4.6 mm) thermostated at 40°±1 C and Hewlett Packard HPLC integrator (Hewlett Packard, Palo Alto, Calif.). The mobile phase was comprised of methanol (MeOH), water and trifluoroacetic acid (TFA) (70:30:0.05% v/v) which was set at a flow rate of 0.5 mL/min. Detection wavelength was set at 272 nm. The sample tray temperature was maintained at 4° C. Calibration curve (0.5 to 5 μg/mL) for compound 1001 was prepared by making appropriate dilutions from the stock solution in 2-propanol. An injection volume of 10 μl was injected into the HPLC column for analysis. All the standards and samples prepared were stored at 4° C. before and during the analysis.
as §1, §2

[3] = Appearance of compound 1001 MNF, solvent evaporation method; format: physicochemical; conditions: HCO-60 4 wt %, Octoxynol-40 0.01 wt %
Protocol: as §1, §2

[4] = Ocular tissue distribution of compound 1001 and RX-10008 by LC-MS/MS; format: in vivo, rabbit
Protocol: A study was conducted in rabbits to test the tolerance and ocular tissue distribution of two nanomicellar formulations of compound 1001 (RX10045) against matching placebos (Table 7a and 7b) and balanced saline solution (BSS). Healthy New Zealand female white rabbits (2-3 kg) were used for this study. One drop (approximately 35 μL) of study drug was applied o.d. 4×/day at two hour intervals for 5 days. One drop of BSS was applied to the contralateral eye.
Selected ocular fluids/tissues (aqueous humor, vitreous humor, conjunctiva, cornea, iris-ciliary body, lens, retina/choroid, and sclera) collected from two rabbits each in the RX-10045 (0.15% in HCO-60, 0.1% in HCO-40) treatment groups, and from one rabbit in each of the matching placebo groups, were assayed for compound 1001 and another resolvin by liquid chromatography-tandem mass spectrometry (LC-MS/MS). Warfarin-d5 and 5-HDA were used as internal standards for the analysis of RX-10045 and its active metabolite, RX-10008, respectively, in aqueous humor and vitreous humor. For the other ocular tissues (solid tissues), warfarin-d5 and phenyl acetic acid-d5 (PAA-d5) were used as the internal standards for compound 1001 and RX-10008, respectively. The analytical range for the solid tissues were 0.125-100 ng. The results of the solid tissue analyses were converted to ng/g by correcting for the amount of tissue analyzed.

[5] = 1001 initially added 0.035 wt %
[6] = 1001 initially added 0.070 wt %
[7] = 1001 initially added 0.095 wt %
[8] = 1001 initially added 0.120 wt %
[9] = 1001 initially added 0.250 wt %
[10] = 1001 initially added 0.300 wt %
[11] = 1001 initially added 0.400 wt %
[12] = rabbits, RX-10045 formulations 4×/day for 5 days

C#CC[C@@H](O)/C=C/C=C/C#C[C@@H](O)CCCC(=O)OC(C)C [compound 1001]
Mixed nanomicellar size (nm) [1, 5]: 24.90 nm | Polydispersity Index [1, 5]: 0.442 | Mixed nanomicellar size (nm) [1, 6]: 25.01 nm | Polydispersity Index [1, 6]: 0.414 | Mixed nanomicellar size (nm) [1, 7]: 24.79 nm | Polydispersity Index [1, 7]: 0.415 | Mixed nanomicellar size (nm) [1, 8]: 18.28 nm | Polydispersity Index [1, 8]: 0.320 | Mixed nanomicellar size (nm) [1, 9]: 18.37 nm | Polydispersity Index [1, 9]: 0.331 | Mixed nanomicellar size (nm) [1, 10]: 18.29 nm | Polydispersity Index [1, 10]: 0.345 | Mixed nanomicellar size (nm) [1, 11]: 18.2 nm | Polydispersity Index [1, 11]: 0.333 | 1001 (loaded in mixed micelles) wt % [2, 5]: 0.033 wt % | 1001 (loaded in mixed micelles) wt % [2, 6]: 0.065 wt % | 1001 (loaded in mixed micelles) wt % [2, 7]: 0.084 wt % | 1001 (loaded in mixed micelles) wt % [2, 8]: 0.11 wt % | 1001 (loaded in mixed micelles) wt % [2, 9]: 0.26 wt % | 1001 (loaded in mixed micelles) wt % [2, 10]: 0.32 wt % | 1001 (loaded in mixed micelles) wt % [2, 11]: 0.45 wt % | Result [3, 5]: Clear/transparent | Result [3, 6]: Clear/transparent | Result [3, 7]: Clear/transparent | Result [3, 8]: Pale yellow color | Result [3, 9]: Yellow color | Result [3, 10]: Yellow color | Result [3, 11]: Yellow color | hydrolysis to active metabolite RX-10008 ([4]; rabbit ocular tissues): rapidly hydrolyzed | compound 1001 in the majority of ocular tissues [4, 12]: either not detected or was below the quantitation limit | concentrations of the compound 1001 ester prodrug in the sclera and conjunctiva [4, 12]: sporadic, relatively low
